Test results from US10287301B2 (Achillion Pharmaceuticals, Inc., priority 2015, dated 2019).

tested on: complement alternative pathway (CAP), hemolysis of rabbit erythrocytes (RE); assay: Combination therapy: hemolysis assay of two compounds; assay type: cell-based, human; conditions: combination with Complement Factor D inhibitor ("1"); 95% confidence limits; means ± standard deviations from two or three independent experiments
Description: The combinatorial efficacy of two compounds on the complement alternative pathway (CAP) was assessed by determining the effect of two compounds mixed together at various concentrations with Normal Human Serum (NHS) on the hemolysis of rabbit erythrocytes (RE) or the production of terminal complement complex (TCC). In both assays the two test compounds were prepared individually in seven-point dilution series, with an eighth sample for each containing solvent alone, and each of the 64 possible combinations was tested in duplicate or triplicate wells.
In the hemolysis assay, NHS (Complement Technology) diluted to 10% in GVB^0 Buffer (0.1% gelatin, 5 mM Veronal, 145 mM NaCl, 0.025% NaN3, pH 7.3, Complement Technology) plus 10 mM Mg-EGTA was incubated with the compounds at various concentrations for 15 minutes at 37° C. RE (Complement Technology) freshly suspended in GVB^0 plus 10 mM Mg-EGTA was added to a final concentration of 1×10^8 cells/mL and reactions were incubated for 30 minutes at 37° C. Positive control reactions consist of GVB^0 plus Mg-EGTA with NHS and RE but without test compounds; negative control reactions consist of GVB^0 plus Mg-EGTA with RE only. Samples were centrifuged at 2000 g for 3 minutes and supernatants collected. Absorbance at 405 nm (A405) was recorded using a microplate spectrophotometer.
Combinatorial effects in both assays were analyzed using the three-dimensional surface-graphing method of Prichard, M. N. and C. Shipman, Jr., Antiviral Research 1990, 14: 181-205, wherein the X-axis and Y-axis indicate test compound concentrations and the Z-axis indicates the difference between measured inhibition and a theoretically determined additive inhibition. For an additive combinatorial relationship the surface graph will resemble a horizontal plane of zero height, whereas positive surface peaks indicate greater inhibition than expected and therefore synergy, and negative surface peaks indicate less inhibition than expected and therefore antagonism.
Synergy and antagonism volumes are the summed volumes of peaks respectively above and below the Z=0 plane on the surface graph. Volumes are determined using 95% confidence limits to assure significance. Compounds are considered additive for volumes between −25 and 25. Compounds are considered slightly synergistic for volumes between 25 and 50, moderately synergistic for volumes between 50 and 100, and strongly synergistic for volumes greater than 100. Compounds are considered slightly antagonistic for volumes between −25 and −50, moderately antagonistic for volumes between −50 and −100, and strongly antagonistic for volumes less than −100. Results are presented as means±standard deviations from two or three independent experiments.

Point of comparison: `N=C(N)c1ccc2cc(OC(=O)c3ccc(N=C(N)N)cc3)ccc2c1` [FUT-175], “Antagonism Volume” value −59 ± 11 μM^2 · % inhibition. Against it:
- CCN[C@H](CC(=O)N1CCN(c2nc(N)c3cc(OC)c(OC)c(F)c3n2)CC1)c1ccc(F)cc1 [Complement Factor B inhibitor] — higher, −18 ± 10 μM^2 · % inhibition
- CC[C@H](C)[C@H](N)C(=O)N[C@H]1CSSC[C@@H](C(=O)N[C@H](C(N)=O)[C@@H](C)O)NC(=O)[C@H](CCCN=C(N)N)NC(=O)[C@H](Cc2cnc[nH]2)NC(=O)[C@H](Cc2cnc[nH]2)NC(=O)CNC(=O)[C@H](Cc2c[nH]c3ccccc23)NC(=O)[C@H](CC(=O)O)NC(=O)[C@H](CCC(N)=O)NC(=O)[C@H](C(C)C)NC(=O)[C@H](C(C)C)NC1=O [Compstatin] — higher, −17 ± 15 μM^2 · % inhibition

Point of comparison: `CCN[C@H](CC(=O)N1CCN(c2nc(N)c3cc(OC)c(OC)c(F)c3n2)CC1)c1ccc(F)cc1` [Complement Factor B inhibitor], “Synergy Volume” value 157 ± 99 μM^2 · % inhibition. Against it:
- CC[C@H](C)[C@H](N)C(=O)N[C@H]1CSSC[C@@H](C(=O)N[C@H](C(N)=O)[C@@H](C)O)NC(=O)[C@H](CCCN=C(N)N)NC(=O)[C@H](Cc2cnc[nH]2)NC(=O)[C@H](Cc2cnc[nH]2)NC(=O)CNC(=O)[C@H](Cc2c[nH]c3ccccc23)NC(=O)[C@H](CC(=O)O)NC(=O)[C@H](CCC(N)=O)NC(=O)[C@H](C(C)C)NC(=O)[C@H](C(C)C)NC1=O [Compstatin] — within error, 244 ± 104 μM^2 · % inhibition
- N=C(N)c1ccc2cc(OC(=O)c3ccc(N=C(N)N)cc3)ccc2c1 [FUT-175] — within error, 95 ± 37 μM^2 · % inhibition
